Structure (SMILES): N#CCc1ccc([N+](=O)[O-])cc1
- solubility (mole fraction) (in 1,4-dioxane, 288.15 K): 0.0461
- solubility (mole fraction) (in 1,4-dioxane, 293.15 K): 0.0567
- solubility (mole fraction) (in 1,4-dioxane, 298.15 K): 0.0715
- solubility (mole fraction) (in 1,4-dioxane, 303.15 K): 0.0888
- solubility (mole fraction) (in 1,4-dioxane, 308.15 K): 0.109
- solubility (mole fraction) (in 1,4-dioxane, 313.15 K): 0.134
- solubility (mole fraction) (in 1,4-dioxane, 318.15 K): 0.161
- solubility (mole fraction) (in 1,4-dioxane, 323.15 K): 0.193
- solubility (mole fraction) (in 1,4-dioxane, 328.15 K): 0.232
- solubility (mole fraction) (in 1,4-dioxane, 333.15 K): 0.283
- solubility (mole fraction) (in 2-butanone, 278.15 K): 0.0458
- solubility (mole fraction) (in 2-butanone, 283.15 K): 0.0534
- solubility (mole fraction) (in 2-butanone, 288.15 K): 0.0617
- solubility (mole fraction) (in 2-butanone, 293.15 K): 0.0717
- solubility (mole fraction) (in 2-butanone, 298.15 K): 0.0828
- solubility (mole fraction) (in 2-butanone, 303.15 K): 0.0953
- solubility (mole fraction) (in 2-butanone, 308.15 K): 0.109
- solubility (mole fraction) (in 2-butanone, 313.15 K): 0.126
- solubility (mole fraction) (in 2-butanone, 318.15 K): 0.144
- solubility (mole fraction) (in 2-butanone, 323.15 K): 0.166
- solubility (mole fraction) (in 2-butanone, 328.15 K): 0.189
- solubility (mole fraction) (in 2-butanone, 333.15 K): 0.216
- solubility (mole fraction) (in acetic acid, 293.15 K): 0.014
- solubility (mole fraction) (in acetic acid, 298.15 K): 0.0166
- solubility (mole fraction) (in acetic acid, 303.15 K): 0.0195
- solubility (mole fraction) (in acetic acid, 308.15 K): 0.0231
- solubility (mole fraction) (in acetic acid, 313.15 K): 0.0272
- solubility (mole fraction) (in acetic acid, 318.15 K): 0.0319
- solubility (mole fraction) (in acetic acid, 323.15 K): 0.0375
- solubility (mole fraction) (in acetic acid, 328.15 K): 0.0438
- solubility (mole fraction) (in acetic acid, 333.15 K): 0.0516
- solubility (mole fraction) (in acetone, 278.15 K): 0.057
- solubility (mole fraction) (in acetone, 283.15 K): 0.0658
- solubility (mole fraction) (in acetone, 288.15 K): 0.0753
- solubility (mole fraction) (in acetone, 293.15 K): 0.0859
- solubility (mole fraction) (in acetone, 298.15 K): 0.0974
- solubility (mole fraction) (in acetone, 303.15 K): 0.111
- solubility (mole fraction) (in acetone, 308.15 K): 0.126
- solubility (mole fraction) (in acetone, 313.15 K): 0.143
- solubility (mole fraction) (in acetone, 318.15 K): 0.162
- solubility (mole fraction) (in acetone, 323.15 K): 0.183
- solubility (mole fraction) (in acetone, 328.15 K): 0.206
- solubility (mole fraction) (in acetonitrile, 278.15 K): 0.0361
- solubility (mole fraction) (in acetonitrile, 283.15 K): 0.0437
- solubility (mole fraction) (in acetonitrile, 288.15 K): 0.0519
- solubility (mole fraction) (in acetonitrile, 293.15 K): 0.0628
- solubility (mole fraction) (in acetonitrile, 298.15 K): 0.0749
- solubility (mole fraction) (in acetonitrile, 303.15 K): 0.0899
- solubility (mole fraction) (in acetonitrile, 308.15 K): 0.105
- solubility (mole fraction) (in acetonitrile, 313.15 K): 0.124
- solubility (mole fraction) (in acetonitrile, 318.15 K): 0.145
- solubility (mole fraction) (in acetonitrile, 323.15 K): 0.169
- solubility (mole fraction) (in acetonitrile, 328.15 K): 0.196
- solubility (mole fraction) (in acetonitrile, 333.15 K): 0.228
- solubility (mole fraction) (in cyclohexane, 283.15 K): 9.17e-05
- solubility (mole fraction) (in cyclohexane, 288.15 K): 0.000111
- solubility (mole fraction) (in cyclohexane, 293.15 K): 0.000134
- solubility (mole fraction) (in cyclohexane, 298.15 K): 0.000166
- solubility (mole fraction) (in cyclohexane, 303.15 K): 0.000209
- solubility (mole fraction) (in cyclohexane, 308.15 K): 0.000258
- solubility (mole fraction) (in cyclohexane, 313.15 K): 0.000327
- solubility (mole fraction) (in cyclohexane, 318.15 K): 0.000409
- solubility (mole fraction) (in cyclohexane, 323.15 K): 0.000505
- solubility (mole fraction) (in cyclohexane, 328.15 K): 0.000639
- solubility (mole fraction) (in cyclohexane, 333.15 K): 0.000822
- solubility (mole fraction) (in ethanol, 278.15 K): 0.00183
- solubility (mole fraction) (in ethanol, 283.15 K): 0.00223
- solubility (mole fraction) (in ethanol, 288.15 K): 0.00279
- solubility (mole fraction) (in ethanol, 293.15 K): 0.00352
- solubility (mole fraction) (in ethanol, 298.15 K): 0.0043
- solubility (mole fraction) (in ethanol, 303.15 K): 0.00536
- solubility (mole fraction) (in ethanol, 308.15 K): 0.00654
- solubility (mole fraction) (in ethanol, 313.15 K): 0.00788
- solubility (mole fraction) (in ethanol, 318.15 K): 0.00986
- solubility (mole fraction) (in ethanol, 323.15 K): 0.0122
- solubility (mole fraction) (in ethanol, 328.15 K): 0.0149
- solubility (mole fraction) (in ethanol, 333.15 K): 0.0178
- solubility (mole fraction) (in ethyl acetate, 278.15 K): 0.122
- solubility (mole fraction) (in ethyl acetate, 283.15 K): 0.13
- solubility (mole fraction) (in ethyl acetate, 288.15 K): 0.14
- solubility (mole fraction) (in ethyl acetate, 293.15 K): 0.149
- solubility (mole fraction) (in ethyl acetate, 298.15 K): 0.159
- solubility (mole fraction) (in ethyl acetate, 303.15 K): 0.17
- solubility (mole fraction) (in ethyl acetate, 308.15 K): 0.182
- solubility (mole fraction) (in ethyl acetate, 313.15 K): 0.196
- solubility (mole fraction) (in ethyl acetate, 318.15 K): 0.21
- solubility (mole fraction) (in ethyl acetate, 323.15 K): 0.228
- solubility (mole fraction) (in ethyl acetate, 328.15 K): 0.246
- solubility (mole fraction) (in ethyl acetate, 333.15 K): 0.268
- solubility (mole fraction) (in ethylbenzene, 278.15 K): 0.00564
- solubility (mole fraction) (in ethylbenzene, 283.15 K): 0.00685
- solubility (mole fraction) (in ethylbenzene, 288.15 K): 0.00784
- solubility (mole fraction) (in ethylbenzene, 293.15 K): 0.00969
- solubility (mole fraction) (in ethylbenzene, 298.15 K): 0.0118
- solubility (mole fraction) (in ethylbenzene, 303.15 K): 0.0135
- solubility (mole fraction) (in ethylbenzene, 308.15 K): 0.0163
- solubility (mole fraction) (in ethylbenzene, 313.15 K): 0.0201
- solubility (mole fraction) (in ethylbenzene, 318.15 K): 0.0238
- solubility (mole fraction) (in ethylbenzene, 323.15 K): 0.0284
- solubility (mole fraction) (in ethylbenzene, 328.15 K): 0.0343
- solubility (mole fraction) (in ethylbenzene, 333.15 K): 0.0446
- solubility (mole fraction) (in isobutanol, 278.15 K): 0.000842
- solubility (mole fraction) (in isobutanol, 283.15 K): 0.00108
- solubility (mole fraction) (in isobutanol, 288.15 K): 0.00139
- solubility (mole fraction) (in isobutanol, 293.15 K): 0.00178
- solubility (mole fraction) (in isobutanol, 298.15 K): 0.00229
- solubility (mole fraction) (in isobutanol, 303.15 K): 0.00299
- solubility (mole fraction) (in isobutanol, 308.15 K): 0.00383
- solubility (mole fraction) (in isobutanol, 313.15 K): 0.00492
- solubility (mole fraction) (in isobutanol, 318.15 K): 0.0063
- solubility (mole fraction) (in isobutanol, 323.15 K): 0.00806
- solubility (mole fraction) (in isobutanol, 328.15 K): 0.0102
- solubility (mole fraction) (in isobutanol, 333.15 K): 0.0129
- solubility (mole fraction) (in isopropanol, 278.15 K): 0.000901
- solubility (mole fraction) (in isopropanol, 283.15 K): 0.00119
- solubility (mole fraction) (in isopropanol, 288.15 K): 0.00153
- solubility (mole fraction) (in isopropanol, 293.15 K): 0.00193
- solubility (mole fraction) (in isopropanol, 298.15 K): 0.00252
- solubility (mole fraction) (in isopropanol, 303.15 K): 0.00332
- solubility (mole fraction) (in isopropanol, 308.15 K): 0.00424
- solubility (mole fraction) (in isopropanol, 313.15 K): 0.00535
- solubility (mole fraction) (in isopropanol, 318.15 K): 0.00683
- solubility (mole fraction) (in isopropanol, 323.15 K): 0.00864
- solubility (mole fraction) (in isopropanol, 328.15 K): 0.011
- solubility (mole fraction) (in isopropanol, 333.15 K): 0.0138
- solubility (mole fraction) (in methanol, 278.15 K): 0.00237
- solubility (mole fraction) (in methanol, 283.15 K): 0.00274
- solubility (mole fraction) (in methanol, 288.15 K): 0.00336
- solubility (mole fraction) (in methanol, 293.15 K): 0.0043
- solubility (mole fraction) (in methanol, 298.15 K): 0.00547
- solubility (mole fraction) (in methanol, 303.15 K): 0.00695
- solubility (mole fraction) (in methanol, 308.15 K): 0.00865
- solubility (mole fraction) (in methanol, 313.15 K): 0.011
- solubility (mole fraction) (in methanol, 318.15 K): 0.0136
- solubility (mole fraction) (in methanol, 323.15 K): 0.017
- solubility (mole fraction) (in methanol, 328.15 K): 0.0212
- solubility (mole fraction) (in methanol, 333.15 K): 0.0262
- solubility (mole fraction) (in n-butanol, 278.15 K): 0.00128
- solubility (mole fraction) (in n-butanol, 283.15 K): 0.00147
- solubility (mole fraction) (in n-butanol, 288.15 K): 0.0019
- solubility (mole fraction) (in n-butanol, 293.15 K): 0.00241
- solubility (mole fraction) (in n-butanol, 298.15 K): 0.00306
- solubility (mole fraction) (in n-butanol, 303.15 K): 0.00388
- solubility (mole fraction) (in n-butanol, 308.15 K): 0.00501
- solubility (mole fraction) (in n-butanol, 313.15 K): 0.00643
- solubility (mole fraction) (in n-butanol, 318.15 K): 0.00807
- solubility (mole fraction) (in n-butanol, 323.15 K): 0.0102
- solubility (mole fraction) (in n-butanol, 328.15 K): 0.0129
- solubility (mole fraction) (in n-butanol, 333.15 K): 0.0159
- solubility (mole fraction) (in n-propanol, 278.15 K): 0.00133
- solubility (mole fraction) (in n-propanol, 283.15 K): 0.00165
- solubility (mole fraction) (in n-propanol, 288.15 K): 0.00204
- solubility (mole fraction) (in n-propanol, 293.15 K): 0.0026
- solubility (mole fraction) (in n-propanol, 298.15 K): 0.00332
- solubility (mole fraction) (in n-propanol, 303.15 K): 0.0042
- solubility (mole fraction) (in n-propanol, 308.15 K): 0.00526
- solubility (mole fraction) (in n-propanol, 313.15 K): 0.00673
- solubility (mole fraction) (in n-propanol, 318.15 K): 0.00847
- solubility (mole fraction) (in n-propanol, 323.15 K): 0.0107
- solubility (mole fraction) (in n-propanol, 328.15 K): 0.0135
- solubility (mole fraction) (in n-propanol, 333.15 K): 0.017
- solubility (mole fraction) (in toluene, 278.15 K): 0.00791
- solubility (mole fraction) (in toluene, 283.15 K): 0.00966
- solubility (mole fraction) (in toluene, 288.15 K): 0.0117
- solubility (mole fraction) (in toluene, 293.15 K): 0.0148
- solubility (mole fraction) (in toluene, 298.15 K): 0.0177
- solubility (mole fraction) (in toluene, 303.15 K): 0.0208
- solubility (mole fraction) (in toluene, 308.15 K): 0.0252
- solubility (mole fraction) (in toluene, 313.15 K): 0.0298
- solubility (mole fraction) (in toluene, 318.15 K): 0.0354
- solubility (mole fraction) (in toluene, 323.15 K): 0.0432
- solubility (mole fraction) (in toluene, 328.15 K): 0.053
- solubility (mole fraction) (in toluene, 333.15 K): 0.0657
- solubility (mole fraction) (in water, 278.15 K): 1.5e-05
- solubility (mole fraction) (in water, 283.15 K): 1.94e-05
- solubility (mole fraction) (in water, 288.15 K): 2.48e-05
- solubility (mole fraction) (in water, 293.15 K): 2.98e-05
- solubility (mole fraction) (in water, 298.15 K): 3.55e-05
- solubility (mole fraction) (in water, 303.15 K): 4.27e-05
- solubility (mole fraction) (in water, 308.15 K): 5.2e-05
- solubility (mole fraction) (in water, 313.15 K): 6.4e-05
- solubility (mole fraction) (in water, 318.15 K): 7.89e-05
- solubility (mole fraction) (in water, 323.15 K): 9.63e-05
- solubility (mole fraction) (in water, 328.15 K): 0.000117
- solubility (mole fraction) (in water, 333.15 K): 0.000142

Reference: BigSolDB 2.1
